The values below are quoted from earlier work in patent US20160378912A1, “STRUCTURE-BASED MODELING AND TARGET-SELECTIVITY PREDICTION” (EPIGENETX, LLC, priority 2013, published 2016).

Conditions in all cases: cited from earlier work
One data set deals with HDAC1 (Homo sapiens, UniProt Q13547).
The target of a further data set is HDAC2 (Homo sapiens, UniProt Q92769).
For the next data set, the target named is T1, HDAC7 (Homo sapiens, UniProt Q8WUI4).
T1 sequence (Q8WUI4 1-952): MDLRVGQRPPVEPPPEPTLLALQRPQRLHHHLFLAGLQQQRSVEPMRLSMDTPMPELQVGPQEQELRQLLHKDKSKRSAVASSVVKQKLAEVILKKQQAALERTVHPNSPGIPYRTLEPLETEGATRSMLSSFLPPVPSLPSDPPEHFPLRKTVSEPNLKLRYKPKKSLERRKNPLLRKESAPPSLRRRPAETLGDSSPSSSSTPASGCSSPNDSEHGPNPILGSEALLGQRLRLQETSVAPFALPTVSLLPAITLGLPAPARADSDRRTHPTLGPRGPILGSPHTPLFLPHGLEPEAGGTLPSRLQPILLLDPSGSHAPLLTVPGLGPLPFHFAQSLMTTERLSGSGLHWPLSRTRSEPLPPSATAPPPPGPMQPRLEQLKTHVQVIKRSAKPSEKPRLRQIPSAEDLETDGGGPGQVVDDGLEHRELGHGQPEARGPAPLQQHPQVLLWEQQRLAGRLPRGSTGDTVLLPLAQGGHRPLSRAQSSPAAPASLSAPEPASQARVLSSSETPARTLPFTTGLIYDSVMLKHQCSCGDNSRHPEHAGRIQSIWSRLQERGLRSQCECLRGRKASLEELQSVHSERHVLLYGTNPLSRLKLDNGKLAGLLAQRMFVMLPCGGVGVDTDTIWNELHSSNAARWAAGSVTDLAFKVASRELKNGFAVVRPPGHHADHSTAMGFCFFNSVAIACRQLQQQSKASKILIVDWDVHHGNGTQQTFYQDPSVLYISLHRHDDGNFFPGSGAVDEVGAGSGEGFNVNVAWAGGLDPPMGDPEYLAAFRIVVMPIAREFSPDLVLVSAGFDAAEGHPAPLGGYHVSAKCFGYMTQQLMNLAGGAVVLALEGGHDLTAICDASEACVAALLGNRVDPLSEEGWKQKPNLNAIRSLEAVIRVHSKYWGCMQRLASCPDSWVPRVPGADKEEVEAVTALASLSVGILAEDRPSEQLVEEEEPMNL

Setting [1] is: training set, read-out: HDACs inhibitory activities IC50.

Molecules are shown by their SMILES.

HDAC1, sequence (Q13547 whole entry): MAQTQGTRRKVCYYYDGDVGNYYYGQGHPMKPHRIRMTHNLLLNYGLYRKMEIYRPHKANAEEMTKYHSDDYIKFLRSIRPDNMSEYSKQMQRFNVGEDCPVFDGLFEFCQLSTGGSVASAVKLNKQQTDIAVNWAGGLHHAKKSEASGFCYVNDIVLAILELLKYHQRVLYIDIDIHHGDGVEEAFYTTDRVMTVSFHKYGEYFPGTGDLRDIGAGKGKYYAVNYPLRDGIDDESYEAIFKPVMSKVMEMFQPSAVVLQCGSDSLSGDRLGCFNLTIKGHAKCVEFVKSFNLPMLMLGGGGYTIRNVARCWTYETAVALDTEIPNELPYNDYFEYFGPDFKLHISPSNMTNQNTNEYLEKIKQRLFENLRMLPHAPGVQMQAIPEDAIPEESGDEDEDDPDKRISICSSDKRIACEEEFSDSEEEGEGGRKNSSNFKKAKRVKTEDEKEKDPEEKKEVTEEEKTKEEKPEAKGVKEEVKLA
HDAC2, sequence (Q92769 whole entry): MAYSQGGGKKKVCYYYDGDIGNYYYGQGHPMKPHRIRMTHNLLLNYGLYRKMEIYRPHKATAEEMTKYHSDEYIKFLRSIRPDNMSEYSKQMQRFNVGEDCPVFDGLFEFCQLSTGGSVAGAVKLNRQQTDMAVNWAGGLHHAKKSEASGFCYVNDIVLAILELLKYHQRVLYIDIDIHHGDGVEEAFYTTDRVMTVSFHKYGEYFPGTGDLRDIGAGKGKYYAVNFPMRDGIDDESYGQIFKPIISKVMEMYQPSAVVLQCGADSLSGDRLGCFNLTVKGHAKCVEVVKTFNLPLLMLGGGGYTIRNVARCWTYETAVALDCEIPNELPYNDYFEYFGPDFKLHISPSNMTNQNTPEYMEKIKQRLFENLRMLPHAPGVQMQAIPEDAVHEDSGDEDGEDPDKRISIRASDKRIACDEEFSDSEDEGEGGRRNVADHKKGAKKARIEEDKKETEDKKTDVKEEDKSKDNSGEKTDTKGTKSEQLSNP

For the compound `CCCC(=O)O` [NABUT, Butyrate], the pIC50exp at HDAC1 (experimental value of modeled complex) is listed as 3.496. Further, the pIC50 – broadly, the negative decadic logarithm of the IC50, by convention in mol/L – at HDAC1 (training set composition) is listed as 3.50; on HDAC2 (training set composition), 4.54; on HDAC7 (training set composition), 4.52. Moreover, the half-maximal inhibitory concentration (IC50) – broadly, the midpoint of a concentration-inhibition curve – is 319 µM on HDAC1 (setting [1]), 28.9 µM on HDAC2 (setting [1]) and 30 µM at HDAC7 (setting [1]).
